Laboratory results from patent US6995283B2, “Benzophenones as inhibitors of reverse transcriptase” (priority 2001, dated 2006).
Values after ≈ are worked out from the molar mass of the structure shown. Where a name gives a salt, the structure may show the parent alone. Read-outs that look alike come from different tables or passages of the source. One block for each compound: values may come before it.

How the values were obtained:
[1] = Pharmacokinetic studies in male beagle dogs; format: in vivo, beagle dog
Method: Compound 34 (634A in tables and on plots) was dosed as a solid as well as in solution form to male beagle dogs according to the following protocol. Plasma samples were analyzed using the following methods:
Blood samples from the test animals were drawn at periodic intervals, before, and after administration of the test articles. The samples were dispensed into chilled (˜+4° C.) blood tubes containing EDTA anticoagulant which were stored “on ice” (˜+4° C.) prior to centrifugation and separation of the plasma fractions. The plasma samples were transferred to frozen storage (−20° C.) within 30 minutes of blood sampling.
The plasma samples were thawed at room temperature, vortex-mixed for 10 seconds, and 100 μL aliquots transferred to 96-well micro-plates. […]
The supernatant fractions of the wells were transferred to a fresh micro-plate and then evaporated to dryness at 37° C. under a stream of (O2-free) nitrogen. The well residues were reconstituted in 100 μL volumes of acetonitrile:water:acetic acid (40:59.9:0.1 v/v/v) and 20 μL volumes were analyzed by HPLC-MS-MS. […]
The measurement of signal peaks areas, calibration and quantification were carried out using the Turbo-Quan V1.5 (Sciex Inc.) data acquisition and processing software (DAQ) suite. […]

[2] = Oral bioavailability in male Sprague-Dawley rats; format: in vivo, Sprague-Dawley (CD) rat; settings: for AUC(0-inf): rat, plasma
Method: Methods used were generally as described in Example 53, with the following modifications: Sample Collection—In addition to anticoagulant (EDTA), an enzyme inhibitor cocktail containing 50 μL of 100 mM AEBSF (4-(2-aminoethyl)benzenessulfonylfluoride HCl, CalBioChem, cat. no. 101500); 200 mM Benzamide(CalBioChem, cat. no. 199001); and 200 mM EACA (Epislon Amino-n-caproic acid, CalBioChem cat. no. 1381) in FTA Hemaglutionation Buffer (Becton Dickson, cat. no. 4311248) per 1 mL of blood was added to rat blood samples at the time of collection.
HPLC-MS-MS Conditions—Chromatography was performed on a Phenomenex Aqua C18 HPLC Mercury Cartridge (3-micron particle size, 20 mm×2 mm id) or Luna C18 column (50×2 mm).

Solubility = format: physicochemical
Method: A stir bar was put in the vial. The vials were closed with caps and placed on stir plate. […] After equilibration, the samples were centrifuged. An accurate aliquot of clear solution was transferred to a HPLC vial by micropipette. The solubility was determined by HPLC with UV detector and against standard.

HIV-1 wild type virus = experiment: Anti-HIV activity of parent compounds, wild type virus (Table 1; HeLa-CD4-LTR-β-gal cell assay); format: cell-based; settings: Human immunodeficiency virus 1, read-out: Wt
Method: (§1) The HeLa cell assay was performed according to a modifcation of Kimpton J. and Emerman M., Detection of replication-competent and pseudotyped human inmmunodeficiency virus with a sensitive cell line on the basis of activation of an integrated β-galactosidase gene, J. Virol. 66:2232-2239 (1992), in which HIV-1 infection is detected by the activation of an HIV-LTR driven β-galactosidase reporter that is integrated into the genome of a CD4^+ HeLa cell line. Quantitation of β-galactosidase is achieved by measuring the activation of a chemiluminescent substrate (Tropix). The concentration of each compound required to inhibit 50% (IC50) of the HIV-1 induced β-galactosidase signal, relative to untreated controls, was determined for each isogenic, recombinant virus.
(§2) HeLa-CD4-LTR-β-gal cells are propagated in DMEM containing 10% fetal bovine serum+0.2 mg/ml geneticin+0.1 mg/ml hygromycin B. Cells are split by standard trypsinization when confluency reaches 80% (roughly every 2 to 3 days).
(§3) DNA encoding the HIV-1 reverse transcriptase was subcloned from a M13 phage into a general shuttle vector, pBCSK+, as a ˜1.65 kbp EcoRI/HindIII ended DNA fragment. The HIV DNA insert of the resulting plasmid, pRT2, was completely sequenced on both strands prior to use in site directed mutagenesis experiments. Specific amino acid replacements were made using Stratagene Quick Change reagents and mutagenic oligonucleotides from Oligos. […]
(§4) Mutant HIV-1 strains were isolated by a modified Recombinant Virus Assay (Kellamn P. and Larder B., Recombinant virus assay: a rapid, phenotypic assay for assessment of drug susceptibility of human immunodeficiency virus type 1 isolates, Antimicrobial Agents and Chemotherapy, 38:23-30,1994). […] Transfected cell cultures were expanded and monitored until syncitia formation and CPE were extensive. […]
(§5) HIV-1 virus stocks must be titered in the MAGI assay system to establish the appropriate infecting dose. The endpoint for this assay is relative light units (RLUs), and titer is recorded as RLUs/ml. […]

Nev-R mutant virus = experiment: Anti-HIV activity of parent compounds, Nev-R mutant virus (Table 1; HeLa-CD4-LTR-β-gal cell assay); format: cell-based, HIV-1; settings: Human immunodeficiency virus 1, read-out: Nev-R
Method: as §1, §2, §3, §4, §5

Structure (SMILES): Cc1cc(S(N)(=O)=O)ccc1NC(=O)COc1ccc(Cl)cc1C(=O)c1cc(Cl)cc(C#N)c1 [Compound 40, N-[4-(aminosulfonyl)-2-methylphenyl]-2-[4-chloro-2-(3-chloro-5-cyanobenzoyl)phenoxy]acetamide]
- IC50 (HIV-1 wild type virus): 0.5 to 1.8 nM
- IC50 (Nev-R mutant virus): 0.4 to 1.2 nM
- Mean Exposures of 40 Fapp ([2]; free acid, Amorph., PO (soln) 1 mg/kg, DMSO:Tween-80:5% Mannitol (20:0.1:79.9)): 7%
- AUC(0-inf) ([2]; free acid, Amorph., IV 1 mg/kg, PEG400:Solutol:Water (30:20:50), read-out: Mean Exposures of 40 AUC0-∞): 1740 ± 363 ng·h/mL
- AUC(0-inf) ([2]; free acid, Amorph., PO (soln) 1 mg/kg, DMSO:Tween-80:5% Mannitol (20:0.1:79.9), n = 1, read-out: Mean Exposures of 40 AUC0-∞): 128 ng·h/mL
- solubility (Solubility; fassgf or other biorelevant, thermodynamic from solid, SIF, Crystal Form 1, read-out: Solubility): 0.0029 mg/mL (≈ 5.59 µM)

Structure (SMILES): Cc1cc(S(N)(=O)=O)ccc1NC(=O)COc1ccc(Cl)cc1C(=O)c1cc(C#N)cc(C(F)(F)F)c1 [Compound 58]
- IC50 (HIV-1 wild type virus): 2.4 nM
- IC50 (Nev-R mutant virus): 0.9 nM

Structure (SMILES): Cc1cc(S(N)(=O)=O)ccc1NC(=O)COc1ccc(Cl)cc1C(=O)c1cc(F)cc(C(F)(F)F)c1 [Compound 71]
- IC50 (HIV-1 wild type virus): 0.1 to 28 nM
- IC50 (Nev-R mutant virus): 0.4 to 14 nM

Structure (SMILES): CCC(=O)NS(=O)(=O)c1ccc(NC(=O)COc2ccc(Cl)cc2C(=O)c2cc(Cl)cc(C#N)c2)c(C)c1.[Ca] [Calcium salt, 2-[4-chloro-2-(3-chloro-5-cyanobenzoyl)phenoxy]-N-{2-methyl-4-[(propionylamino)sulfonyl]phenyl}acetamide, Calcium Salt, Form 2]
- solubility (Solubility; water, Crystal Form 2): 0.7 mg/mL

Next, values leading:

- appearance of active inhibitor compound 40 in plasma after administration [1]: appears in the plasma
- bioavailability after oral administration (in words) ([1]; oral): excellent bioavailability
- appearance of active inhibitor compound 40 in plasma after administration [2]: appears in the plasma
- bioavailability after oral administration (in words) ([2]; oral, in comparison to the parent compound 40): improved bioavailability
- solubility (Solubility; water, thermodynamic from solid, water, Amorphous, read-out: Solubility): > 100 mg/mL
- solubility (Solubility; water, thermodynamic from solid, water, Crystal Form 1, read-out: Solubility): 92 mg/mL
- solubility (Solubility; water, thermodynamic from solid, water, Crystal Form 4, read-out: Solubility): 2.5 mg/mL
- solubility (Solubility; water, thermodynamic from solid, water, Crystal Form 9, read-out: Solubility): > 100 mg/mL
- solubility (Solubility; water, thermodynamic from solid, water, Crystal Form 10, read-out: Solubility): > 100 mg/mL
- solubility (Solubility; water, thermodynamic from solid, water, Crystal Form 12, read-out: Solubility): > 100 mg/mL
Structure (SMILES): CCC(=O)NS(=O)(=O)c1ccc(NC(=O)COc2ccc(Cl)cc2C(=O)c2cc(Cl)cc(C#N)c2)c(C)c1 [Compound 34, 2-[4-chloro-2-(3-chloro-5-cyanobenzoyl)phenoxy]-N-{2-methyl-4-[(propionylamino)sulfonyl]phenyl}acetamide, Sodium Salt]

- solubility (in words) (Solubility; in comparison with compound 40): improved solubility
Structure (SMILES): CCC(=O)NS(=O)(=O)c1ccc(NC(=O)COc2ccc(Cl)cc2C(=O)c2cc(Cl)cc(C#N)c2)c(C)c1 [Compound 41, 2-[4-chloro-2-(3-chloro-5-cyanobenzoyl)phenoxy]-N-{2-methyl-4-[(propionylamino)sulfonyl]phenyl}acetamide]
